Entries after “also recorded” stand apart in the source; their conditions may differ.
How the values were obtained:
[1] = test system: DNA and RNA G4s of LTR-III; conditions: literature; cited from earlier work
Epstein-Barr viruses = conditions: literature (15); cited from earlier work
human telomeric G4s = conditions: literature (32); cited from earlier work
HIV-1 LTR III G4 = assay: 1D 1H-NMR titration of HIV-1 LTR III G4 with compounds; assay type: binding; conditions: for interaction / binding with LTR III G4 / binding affinity to LTR III G4 compared with albofungin: NMR titration; for interaction / binding with LTR III G4: result in words
Method: (§1) The single DNA nucleotides were purchased from Integrated DNA Technologies (IDT). The DNA sample at 100 μM (single strands) was then re-annealed by heating to 95° C. for 15 min, followed by slow cooling to room temperature overnight in an annealing buffer of 70 mM KCl and 20 mM potassium phosphate (pH 7.0). The final NMR samples contained 0.1 mM […] in 20 mM potassium phosphate buffer (pH 7.0) and 70 mM KCl.
(§2) To verify whether or not the compounds interact with G4 DNA, we performed NMR titration experiments by running one-dimensional (1D) ^1H NMR spectra at 25° C. All compounds were dissolved in isotope-labeled d6-DMSO (from Sigma-Aldrich) at about 50 mM concentration, working as stock solutions. To avoid chemical shift changes of G4 DNA resulted from d6-DMSO addition, 10 μL d6-DMSO was added into 500 μL of 0.1 mM G4 DNA solution in the NMR buffer (20 mM potassium phosphate buffer and 70 mM KCl, pH 7.0, 10% D2O) and then a 1D ^1H-NMR spectrum was recorded as a reference. During NMR titration experiments, each compound was added into G4 DNA solution, the maximal volume of 10 μL of each compound in d6-DMSO solution was thought as a final data point.

[2] = test system: LTR III G4 / hnRNP A2 interaction; assay: 1D 1H-NMR titration of LTR III G4/albofungin complex with RRM1,2 domain of hnRNP A2; assay type: binding; conditions: G4:albofungin 1:3; G4:albofungin:hnRNP A2 1:3:2
Sequence of RRM1,2 domain of hnRNP A2 (P22626 21-191): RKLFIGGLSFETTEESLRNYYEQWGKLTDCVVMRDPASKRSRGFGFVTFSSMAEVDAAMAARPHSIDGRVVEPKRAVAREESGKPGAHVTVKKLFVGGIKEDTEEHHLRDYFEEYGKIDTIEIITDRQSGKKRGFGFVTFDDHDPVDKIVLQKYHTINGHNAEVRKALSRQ
Method: as §2
LTR G4 region is under control of two nuclear proteins: nucleolin, which upon binding increases LTR G4 stability and thus silences transcription (26); the human ribonucleoprotein (hnRNP) A2/B1, which can unfold the LTR G4 efficiently and thus enhances HIV-1 transcription (27). To sum up, G4 binding proteins perform like a switch in the determination of G4's conformation to control viral transcription modulation. Therefore, the RRM domain of human ribonucleoprotein (hnRNP A2) was expressed and purified, and the NMR titration of LTR III G4 with the RRM domain of hnRNP A2 was performed. […]

HIV-1 LTR II G4 = assay: 1D 1H-NMR titration of HIV-1 LTR II G4; assay type: binding; conditions: ratio 1:0, 1:3 and 1:6; even at 1:6
Method: as §1, §2
(§3) Since not only LTR III can form noncanonical G4, LTR II and LTR IV can also form mutually exclusive G4 structures (24). […]

[3] = test system: human telomeric variant htel21_T18 G4; assay: 1D 1H-NMR titration of human telomeric htel21_T18 G-quadruplex; assay type: binding; conditions: concentration ratio 1:5
Method: as §1, §2
The LTR sequence and other G-rich DNA or RNA strands can form polymorphic G4s. For example, a chair-type conformation is adopted by a human telomeric variant, htel21_T18 (d[(GGGTTA)2GGGTTTGGG]) (SEQ ID NO: 1) (25). […]

[4] = test system: RRM1,2 domain of hnRNP A2; assay: 1H-15N HSQC titration of RRM1,2 domain of hnRNP A2 with compound; assay type: binding, human; conditions: titrated at 1:10
Method: The coding sequence of the RRM domain of hnRNP A2 was inserted into the expression vector pET-28a(+) (Novagen). The protein was expressed in Escherichia coli BL21(DE3) at 37° C. for 5 h. Cell lysates were subject to affinity purification with the nickel-nitrilotriacetic acid resin (Qiagen) followed by the cleavage of the hexahistidine tag with the P3C enzyme. The resulting protein was further purified on a Superdex 75 column (GE Healthcare). For the NMR studies, the samples uniformly labeled with ^15N isotopes were expressed and purified as described above, except that the cells were grown in an M9 medium containing [^15N] ammonium chloride (Cambridge Isotopes) and D-glucose.
The titration experiments were performed by recording a series of 2D ^15N-HSQC spectra on uniformly ^15N-labeled RRM domain (˜0.1 mM) in the presence of different amounts of DNA ranging from 0 to 0.5 mM at 25° C. The protein sample and the stock solutions of DNA were all prepared in 20 mM potassium phosphate buffer and 70 mM KCl, pH 7.0, 10% D2O.
All compounds were dissolved in isotope-labeled d6-DMSO (from Sigma-Aldrich) at about 50 mM concentration, working as stock solutions. […]

HIV-1 LTR IV G4 = assay: 1D 1H-NMR titration of HIV-1 LTR IV G4; assay type: binding; conditions: ratio 1:0, 1:3 and 1:6; even at 1:6
Method: as §1, §2, §3

[5] = Solubility in the solvent system of the NMR titration; assay type: physicochemical; conditions: in solution / solvent system at the test concentration
Method: as §2

HIV-1 U3 RNA G4 = assay: 1D 1H-NMR titration of HIV-1 U3 RNA G4; assay type: binding; conditions: ratio 1:0.5, 1:1, 1:3 and 1:5
Method: as §1
as §2, with “point. […]” for “point.”

LTR-III G4 = assay: CD spectroscopy of LTR-III G4 with compound; set-up: species or system HIV-1; conditions: increasing compound concentration ratio, 25° C., 220-320 nm
Method: Circular dichroism (CD) spectra were recorded on Chirascan CD spectrometer at 25° C. from 220 nm to 320 nm under liquid mode; a 1 mm path-length quartz cuvette was used in the test.
Except for NMR titration and X-ray diffraction; Circular Dichroic (CD) spectroscopy is another frequently used method for G4 studies because it is very sensitive to observing slight changes in DNA conformation. (28) Due to its sensitivity, easy manipulation of studied samples, and relatively cheap, CD spectroscopy is regarded as a crucial complementary method in G4 studies; meanwhile, LTR-III G4's structure has only been resolved using NMR elucidation in K^+ solution, a typical hybrid conformation; and different G4 conformation has distinct CD spectra. So CD test was conducted to see if 477-albo will change the conformation of LTR-III G4.

Compound | interaction / binding with LTR III G4 (HIV-1 LTR III G4) | binding affinity to LTR III G4 compared with albofungin (HIV-1 LTR III G4) | further results
CN(C)c1ccc(Nc2c3ccc(NC(=O)CCN4CCCC4)cc3nc3cc(NC(=O)CCN4CCCC4)ccc23)cc1 [BRACO-19] |  |  | binding to DNA and RNA G4s of LTR-III [1]: binds both DNA and RNA G4s of LTR-III; activity against Epstein-Barr viruses (Epstein-Barr viruses): active against; activity against human telomeric G4s (human telomeric G4s): active against
CO[C@@H]1CC[C@H](O)c2c1oc1c3c4c(c(O)c1c2=O)-c1c(cc2c(Cl)c(C)n(N)c(=O)c2c1O)C[C@H]4OCO3 [chloroalbofungin] | poor binding affinity |  | 
COc1c2c(c(O)c3c(=O)c4c(oc13)[C@H](O)CC[C@@H]4O)-c1c(cc3cc(C)n(N)c(=O)c3c1O)CC2 [492-albo] | bind to LTR III G4 | much weaker than albofungin | 
albofungin | potent interaction |  | changes in imino region of LTR III G4/albofungin complex on adding RRM1,2 domain of hnRNP A2 [2]: no changes in the profile of the imino region; chemical shift changes in the imino region of the 1D 1H-NMR spectrum of LTR III G4 (HIV-1 LTR III G4; G4:compound concentration ratio 1:0.5, 25° C.): significant chemical shift changes; chemical shift changes of LTR II G4 1D 1H NMR spectra (HIV-1 LTR II G4): no significant chemical shift changes; chemical shift changes of htel21_T18 1D 1H NMR spectra [3]: no chemical shift changes; binding to the RRM domain of hnRNP A2 [4]: did not bind; chemical shift changes of LTR IV G4 1D 1H NMR spectra (HIV-1 LTR IV G4): no significant chemical shift changes; solubility [5]: poor solubility
CO[C@@H]1CC[C@H](O)c2c1oc1c3c4c(c(O)c1c2=O)-c1c(cc2cc(C)[nH]c(=O)c2c1O)C[C@H]4OCO3 [505-albo] | bind to LTR III G4 | much weaker than albofungin | 
COc1c2c(c(O)c3c(=O)c4c(oc13)[C@H](O)CC[C@@H]4O)-c1c(cc3cc(C)[nH]c(=O)c3c1O)CC2 [477-albo] | specific bind with LTR-III DNA G4; also recorded: bind to LTR III G4 | much weaker than albofungin | new imino shifts indicating conformation change of LTR III G4 (HIV-1 LTR III G4; concentration ratio increased to 1:3, between 13 to 14 ppm and 9.5 to 10.5 ppm): several strange shifts; trend of chemical shift changes of LTR III G4 imino region on titration (HIV-1 LTR III G4; ratio 1:0 to 1:8): clear trend of chemical shifts changes; binding to U3 RNA G4 (imino region of 1D 1H-NMR spectra) (HIV-1 U3 RNA G4): not U3 RNA G4; also recorded: did not change; conformation change of LTR-III G4 in CD spectra (LTR-III G4): noticeable conformation changes from a typical hybrid form into parallel form; solubility [5]: better solubility
CO[C@@H]1CC[C@H](O)c2c1oc1c3c4c(c(O)c1c2=O)-c1c(cc2cc(C)n(NC(C)=O)c(=O)c2c1O)C[C@H]4OCO3 [562-albo] | bind to LTR III G4 | much weaker than albofungin | 
CO[C@@H]1CC[C@H](O)c2c1oc1c3c4c(c(O)c1c2=O)-c1c(cc2cc(C)n(C)c(=O)c2c1O)C[C@H]4OCO3 [519-albo] | bind to LTR III G4 | much weaker than albofungin | 
Cc1cc2cc3c(c(O)c2c(=O)n1N)-c1c2c(c4oc5c(c(=O)c4c1O)[C@@H](O)[C@@H](O)CC5)OCO[C@@H]2C3 [506-1-albo] | bind to LTR III G4 | much weaker than albofungin | 
Cc1cc2cc3c(c(O)c2c(=O)n1N)-c1c2c(c4oc5c(c(=O)c4c1O)[C@@H](O)CC[C@H]5O)OCO[C@@H]2C3 [506-2-albo] | bind to LTR III G4 | much weaker than albofungin | 
